Measurements reported in patent publication US20230028441A1, “NOVEL HETEROARYL-TRIAZOLE COMPOUNDS AS PESTICIDES” (Bayer Aktiengesellschaft, priority 2019, published 2023).
Like-named read-outs stand apart in the source and are kept apart here.

Experiments:
Format in all cases: in vivo
[1] = test system: cattle tick larvae (Rhipicephalus microplus), strain Parkhurst, resistant against synthetic pyrethroids; assay: Rhipicephalus (Boophilus) microplus in-vitro contact test, larval cattle tick; details: read-out: efficacy (larvae dead or moribund)
Procedure, shortened: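 Acetone solutions of compound were coated on glass tube walls (900 ppm giving 5 μg/cm^2) and dried. 20–50 pyrethroid-resistant Parkhurst larvae were held per tube at 27° C and 85% relative humidity; after 48 h negative geotaxis scored efficacy as percent larvae dead or moribund.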

[2] = test system: adult engorged female ticks (Rhipicephalus microplus); assay: Rhipicephalus (Boophilus) microplus injection test; details: 168 h, read-out: efficacy (infertile eggs)
Procedure, shortened: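 Compound was dissolved in DMSO at 10 mg per 0.5 mL and diluted with DMSO to the test concentration. Five engorged adult females received a 1 μL abdominal injection and were kept in a climate chamber. After 7 days, fertile egg deposition was scored, with unclear eggs held until hatching at about 42 days; 100% efficacy means all eggs were infertile.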

[3] = test system: adult unfed cat fleas (Ctenocephalides felis); assay: Ctenocephalides felis oral test; details: 48 h
Procedure, shortened: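 About 20 adult unfed Ctenocephalides felis fed through parafilm on cattle blood dosed with compound (DMSO stock diluted in blood), blood chamber at 37°C, fleas at room temperature. Mortality (%) scored after 2 days; 100% means all fleas killed.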

[4] = test system: adult brown dog ticks (Rhipicephalus sanguineus); assay: Rhipicephalus sanguineus in-vitro contact test with adult brown dog ticks; details: after 48 hours, read-out: efficacy (ticks dead or moribund); for pest or weed control at 5 µg/cm2, 500 g/ha: 5 μg/cm^2 (=500 g/ha); for pest or weed control at 1 µg/cm2, 100 g/ha: 1 μg/cm^2 (=100 g/ha)
Procedure, shortened: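 Compound in acetone coated onto glass tube inner walls at 900 ppm, giving 5 μg/cm^2. Adult ticks (5-10 per tube) held at room temperature for 48 h, then placed on a 45-50° C. heating plate for up to 5 min. Ticks unable to climb away counted dead or moribund; efficacy given as % dead/moribund.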

[5] = test system: larvae of the banded cucumber beetle (Diabrotica balteata); assay: Diabrotica balteata spray test; details: 168 h, read-out: efficacy (seedlings grown up)
Procedure, shortened: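 Germinated wheat seedlings (5 per well, agar plates) sprayed with compound in acetone/DMF diluted in water with 1000 ppm emulsifier, then infested with 10-20 larvae per unit. Efficacy scored after 7 days as % seedling growth relative to untreated, uninfested control (100% = normal growth, 0% = none).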

[6] = test system: green peach aphid (Myzus persicae); assay: Myzus persicae oral test; details: 120 h
Procedure, shortened: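 Compound was dissolved at 1 part by weight in 100 parts acetone, then diluted with water to test concentration and combined with IPL41 insect medium (33%+15% sugar). A mixed aphid population fed on this through a parafilm seal, and mortality (%) was scored after 5 days.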

[7] = test system: larvae of the southern green stink bug (Nezara viridula); assay: Nezara viridula spray test; details: in Hordeum vulgare, 96 h
Procedure, shortened: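 Barley plants infested with Nezara viridula larvae were sprayed with compound in acetone/dimethylformamide, diluted in water containing 1000 ppm alkylarylpolyglycol ether emulsifier. Mortality (%) was scored after 4 days; 100% means all stink bugs killed.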

[8] = test system: fall armyworm larvae (Spodoptera frugiperda); assay: Spodoptera frugiperda spray test (maize leaf sections); details: 168 h
Procedure, shortened: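 Maize leaf sections were sprayed with compound formulated in acetone/DMF and diluted in water containing 1000 ppm emulsifier. Once dry, sections were infested with fall armyworm larvae. Mortality (%) was scored after 7 days.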

[9] = test system: caterpillars of the fall army worm (Spodoptera frugiperda); assay: Spodoptera frugiperda spray test (cotton leaves); details: 168 h
Description: Solvent: 14 parts by weight of dimethylformamide
Emulsifier: alkylaryl polyglycol ether
To produce a suitable preparation of active compound, 1 part by weight of active compound is mixed with the stated amount of solvent and is diluted with water, containing an emulsifier concentration of 1000 ppm, to the desired concentration. Further test concentrations are prepared by dilution with emulsifier containing water. Ammonium salt and/or penetration enhancer in a dosage of 1000 ppm are added to the desired concentration if necessary.
Cotton leaves (Gossypium hirsutum) are treated by being sprayed with the preparation of the active compound of the desired concentration and are infested with caterpillars of the fall army worm (Spodoptera frugiperda).
After 7 days mortality in % is determined. 100% means all the caterpillars have been killed and 0% means none of the caterpillars have been killed.

[10] = test system: adult cat fleas (Ctenocephalides felis); assay: Ctenocephalides felis in-vitro contact test, adult cat flea; details: 5 μg/cm^2 (=500 g/ha), after 48 hours, read-out: efficacy (fleas dead or moribund)
Procedure, shortened: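 Acetone solutions were coated on glass tube walls, 900 ppm giving 5 μg/cm^2. After drying, 5-10 adult fleas per tube were held 48 h at room temperature. Fleas unable to climb away from a 45-50 °C heating plate within 5 min were scored dead or moribund, as % efficacy.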

[11] = test system: brown planthopper (Nilaparvata lugens); assay: Nilaparvata lugens spray test; details: in Oryza sativa, 96 h
Procedure, shortened: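 Rice plants (Oryza sativa) sprayed with compound in acetone/DMF diluted in water containing 1000 ppm alkylarylpolyglycol ether emulsifier, then infested with planthoppers. Mortality % scored after 4 days (100% = all killed, 0% = none killed).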

[12] = 5 μg/cm^2 (=500 g/ha), after 48 hours
[13] = 4 μg/animal, egg deposition after 7 days
[14] = 20 μg/animal, egg deposition after 7 days
[15] = 100 ppm in cattle blood, after 2 days
[16] = 100 g/ha (=32 μg/well), after 7 days, wheat seeds
[17] = 500 g/ha (=160 μg/well), after 7 days, wheat seeds

SMILES	pest or weed control at 5 µg/cm2 [1, 12] [%]	pest or weed control at 0.004 mg [2, 13] [%]	pest or weed control at 0.02 mg [2, 14] [%]	mortality at 100 ppm [3, 15] [%]	pest or weed control at 5 µg/cm2, 500 g/ha [4] [%]	pest or weed control at 32 µg/disc, 100 g/ha [5, 16] [%]	mortality at 4 ppm [6] [%]	mortality at 500 g/ha [7] [%]	mortality at 100 g/ha [8] [%]	mortality at 500 g/ha [8] [%]	mortality at 20 ppm [9] [%]	pest or weed control at 5 µg/cm2 [10] [%]	further results
CC(=O)Nc1nc(C(C)NC(=O)c2cc(Cl)cc(C(F)(F)F)c2)n(-c2ccc(Cl)cn2)n1 (racemic) [I-011, N-[1-[5-acetamido-2-(5-chloro-2-pyridyl)-1,2,4-triazol-3-yl]ethyl]-3-chloro-5-(trifluoromethyl)benzamide]	100	100	100	100	80	100	100	90	100	100	100	–	pest or weed control at 160 µg/disc, 500 g/ha [5, 17]: 100%
CC(NC(=O)c1cc(Cl)cc(C(F)(F)F)c1)c1nc(S(C)(=O)=O)nn1-c1ccc(Cl)cn1 (stereo not shown) [I-063]	–	100	100	–	–	100	100	100	100	100	100	–	pest or weed control at 160 µg/disc, 500 g/ha [5, 17]: 100%
CC(NC(=O)c1cc(Cl)cc(C(F)(F)F)c1)c1nc(NC(=O)C2CC2(F)F)nn1-c1ccc(Cl)cn1 (stereo not shown) [I-018]	100	100	100	100	–	100	–	–	–	–	100	100	pest or weed control at 160 µg/disc, 500 g/ha [5, 17]: 100%
CC(NC(=O)c1cc(Br)cc(Br)c1)c1nc(N)nn1-c1ccc(C#N)cn1 (stereo not shown) [I-114]	100	–	–	–	–	100	90	–	100	–	100	–	–
COC(=O)Nc1nc(C(C)NC(=O)c2cc(Cl)cc(C(F)(F)F)c2)n(-c2ccc(Cl)cn2)n1 (racemic) [I-010, methyl N-[1-(5-chloro-2-pyridyl)-5-[1-[[3-chloro-5-(trifluoromethyl)benzoyl]amino]ethyl]-1,2,4-triazol-3-yl]carbamate]	–	–	–	–	100	–	90	–	100	100	80	–	pest or weed control at 5 µg/cm2 ([1]; 48 h): 100%; pest or weed control at 0.004 mg [2]: 100%; pest or weed control at 0.02 mg [2]: 100%; mortality at 100 ppm [3]: 100%; pest or weed control at 1 µg/cm2, 100 g/ha [4]: 100%; pest or weed control at 32 µg/disc, 100 g/ha [5]: 100%; pest or weed control at 160 µg/disc, 500 g/ha [5]: 100%
CC(NC(=O)c1cc(F)cc(C#N)c1)c1nc(N)nn1-c1ncccn1 (stereo not shown) [I-105]	100	100	–	100	–	100	100	–	100	–	100	100	–
CC(NC(=O)c1cc(Cl)cc(C(F)(F)F)c1)c1nc(NC(=O)C2CC2)nn1-c1ccc(Cl)cn1 (stereo not shown) [I-015]	–	100	100	100	–	–	–	–	100	100	100	–	–
CNc1nc(C(C)NC(=O)c2cc(Cl)cc(OC(F)(F)F)c2)n(-c2ncccn2)n1 (stereo not shown) [I-099]	90	100	–	100	80	100	100	–	100	–	100	100	–
CNc1nc([C@H](C)NC(=O)c2cc(Br)cc(Br)c2)n(-c2ccc(C#N)cn2)n1 [I-143]	–	–	–	–	–	100	–	100	100	–	100	–	–
CC(NC(=O)c1cc(Cl)cc(OC(F)(F)F)c1)c1nc(N)nn1-c1ccc(C#N)cn1 (stereo not shown) [I-118]	100	100	–	100	–	100	100	100	100	–	100	90	–
CSc1nc(C(C)NC(=O)c2cc(Cl)cc(C(F)(F)F)c2)n(-c2ccc(Cl)cn2)n1 (stereo not shown) [I-062]	100	100	100	–	100	100	–	100	–	100	100	100	pest or weed control at 160 µg/disc, 500 g/ha [5, 17]: 100%; mortality at 100 g/ha [7]: 100%
C[C@H](NC(=O)c1cc(OC(F)(F)F)cc(C2CC2)c1)c1nc(N)nn1-c1ccc(C#N)cn1 [I-154]	100	–	–	–	80	100	–	100	100	–	100	100	pest or weed control at 1 µg/cm2, 100 g/ha [4]: 80%
CC(NC(=O)c1cc(Cl)cc(C(F)(F)F)c1)c1nc(CS(C)(=O)=O)nn1-c1ccc(Cl)cn1 (stereo not shown) [I-029]	–	100	100	100	–	–	–	–	100	100	100	–	–
CC(NC(=O)c1cc(Br)cc(C(F)(F)F)c1)c1nc(N)nn1-c1ccc(C#N)cn1 (stereo not shown) [I-117]	100	100	–	100	–	100	100	100	100	–	100	–	–
CNc1nc([C@H](C)NC(=O)c2cc(Br)cc(C(F)(F)F)c2)n(-c2ncccn2)n1 [I-136]	100	–	–	–	100	100	–	90	100	–	100	–	pest or weed control at 1 µg/cm2, 100 g/ha [4]: 100%; mortality at 500 g/ha [11]: 100%
CNc1nc([C@H](C)NC(=O)c2cc(Br)cc(OC(F)(F)F)c2)n(-c2ccc(C#N)cn2)n1 [I-142]	–	–	–	–	–	100	–	100	100	–	100	–	–
